Assay results reported in publication PMC5549488, “Synthesis, Characterization, Cytotoxic Activity, and Interactions with CT-DNA and BSA of Cationic Ruthenium(II) Complexes Containing Dppm and Quinoline Carboxylates” (Bioinorganic Chemistry and Applications, 2017).

Molecular target: T1, bovine serum albumin (BSA) (Bos taurus, UniProt P02769)
T1 construct: gene ALB
Assay: tryptophan fluorescence quenching (Stern-Volmer, double-log plot), […] K; Kb given
Assay type: binding

T1 sequence (P02769 25-607): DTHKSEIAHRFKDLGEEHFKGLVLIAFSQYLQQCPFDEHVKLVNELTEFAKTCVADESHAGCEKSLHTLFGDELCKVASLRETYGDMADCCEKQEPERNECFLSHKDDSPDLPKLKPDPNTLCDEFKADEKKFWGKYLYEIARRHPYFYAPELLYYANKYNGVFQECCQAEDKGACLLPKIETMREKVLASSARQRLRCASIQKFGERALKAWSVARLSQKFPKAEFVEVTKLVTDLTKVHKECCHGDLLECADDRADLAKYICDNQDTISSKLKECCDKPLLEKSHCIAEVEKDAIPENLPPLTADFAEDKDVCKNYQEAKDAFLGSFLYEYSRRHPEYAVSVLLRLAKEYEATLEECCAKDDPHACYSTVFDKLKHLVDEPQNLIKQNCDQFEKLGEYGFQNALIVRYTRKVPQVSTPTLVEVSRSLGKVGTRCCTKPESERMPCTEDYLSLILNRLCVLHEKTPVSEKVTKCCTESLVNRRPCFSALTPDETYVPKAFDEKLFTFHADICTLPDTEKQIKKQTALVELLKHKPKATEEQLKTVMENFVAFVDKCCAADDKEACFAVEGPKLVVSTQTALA

K b / (×10^5)	Substance
3.25 (×10^5) (Kb)	cis-[Ru(kynu)(dppm)2]PF6 [compound 2]
4.77 (×10^5) (Kb)	cis-[Ru(quin)(dppm)2]PF6 [compound 1]
